# Measurements published in US8486960B2, “Formulations and methods for vascular permeability-related diseases or conditions” (Santen Pharmaceutical Co., Ltd., priority 2006, dated 2013).
# Test: Rapamycin levels in hamster cheek tissue homogenate by LC/MS
# Type: in vivo, golden Syrian hamsters
# Details: for Rapamycin assayed concentration, Average: hamster cheek pouch, all samples
# Source text: Upon sacrifice of the animals, samples of both of the Hamster cheeks were obtained and frozen at −80 degrees Celsius. The samples were labeled as to the amount of intraperitoneal dose received, and whether they were right (studied with chamber) or left.
compound,measurement,setting,value
CO[C@H]1C[C@@H]2CC[C@@H](C)[C@@](O)(O2)C(=O)C(=O)N2CCCC[C@H]2C(=O)O[C@H]([C@H](C)C[C@@H]2CC[C@@H](O)[C@H](OC)C2)CC(=O)[C@H](C)/C=C(\C)[C@@H](O)[C@@H](OC)C(=O)[C@H](C)C[C@H](C)/C=C/C=C/C=C/1C [rapamycin],average tissue level of rapamycin in the hamster cheek pouch,0.1 mg/kg treatment group,7.37 ng/g
same,average tissue level of rapamycin in the hamster cheek pouch,0.5 mg/kg treatment group,11.01 ng/g
same,average tissue level of rapamycin in the hamster cheek pouch,2.0 mg/kg treatment group,40.83 ng/g
same,average tissue level of rapamycin in the hamster cheek pouch,10 mg/kg treatment group,55.15 ng/g
same,"Rapamycin assayed concentration, Average",dosing 0.1 mg/kg ip,7.37 ng/g or pg/mg
same,"Rapamycin assayed concentration, Average",dosing 0.5 mg/kg ip,11.01 ng/g or pg/mg
same,"Rapamycin assayed concentration, Average",dosing 2 mg/kg ip,40.83 ng/g or pg/mg
same,"Rapamycin assayed concentration, Average",dosing 10 mg/kg ip,55.15 ng/g or pg/mg
